Measurements as given in patent US4276378A, “High sensitivity assays for angiotensin converting enzyme” (priority 1977, dated 1981).
Peptide text beside a SMILES is read from it. * marks the point of attachment. Bz = O=C(c1ccccc1)*

Assays:
[1] = molecular target: T1, Guinea pig serum ACE (Cavia porcellus, UniProt H0UWL7); experiment: Kinetics of sulfate-stimulated HipHisLeu hydrolysis (Example 4); format: biochemical; settings: for V (reaction velocity): pH 8.0, 0.1 M NaCl, 37° C., 10 minutes; for V (reaction velocity) / 1/V: 0.75 M Na2 SO4; for 1/V: 0.1 M NaCl
T1 sequence (H0UWL7 33-1234): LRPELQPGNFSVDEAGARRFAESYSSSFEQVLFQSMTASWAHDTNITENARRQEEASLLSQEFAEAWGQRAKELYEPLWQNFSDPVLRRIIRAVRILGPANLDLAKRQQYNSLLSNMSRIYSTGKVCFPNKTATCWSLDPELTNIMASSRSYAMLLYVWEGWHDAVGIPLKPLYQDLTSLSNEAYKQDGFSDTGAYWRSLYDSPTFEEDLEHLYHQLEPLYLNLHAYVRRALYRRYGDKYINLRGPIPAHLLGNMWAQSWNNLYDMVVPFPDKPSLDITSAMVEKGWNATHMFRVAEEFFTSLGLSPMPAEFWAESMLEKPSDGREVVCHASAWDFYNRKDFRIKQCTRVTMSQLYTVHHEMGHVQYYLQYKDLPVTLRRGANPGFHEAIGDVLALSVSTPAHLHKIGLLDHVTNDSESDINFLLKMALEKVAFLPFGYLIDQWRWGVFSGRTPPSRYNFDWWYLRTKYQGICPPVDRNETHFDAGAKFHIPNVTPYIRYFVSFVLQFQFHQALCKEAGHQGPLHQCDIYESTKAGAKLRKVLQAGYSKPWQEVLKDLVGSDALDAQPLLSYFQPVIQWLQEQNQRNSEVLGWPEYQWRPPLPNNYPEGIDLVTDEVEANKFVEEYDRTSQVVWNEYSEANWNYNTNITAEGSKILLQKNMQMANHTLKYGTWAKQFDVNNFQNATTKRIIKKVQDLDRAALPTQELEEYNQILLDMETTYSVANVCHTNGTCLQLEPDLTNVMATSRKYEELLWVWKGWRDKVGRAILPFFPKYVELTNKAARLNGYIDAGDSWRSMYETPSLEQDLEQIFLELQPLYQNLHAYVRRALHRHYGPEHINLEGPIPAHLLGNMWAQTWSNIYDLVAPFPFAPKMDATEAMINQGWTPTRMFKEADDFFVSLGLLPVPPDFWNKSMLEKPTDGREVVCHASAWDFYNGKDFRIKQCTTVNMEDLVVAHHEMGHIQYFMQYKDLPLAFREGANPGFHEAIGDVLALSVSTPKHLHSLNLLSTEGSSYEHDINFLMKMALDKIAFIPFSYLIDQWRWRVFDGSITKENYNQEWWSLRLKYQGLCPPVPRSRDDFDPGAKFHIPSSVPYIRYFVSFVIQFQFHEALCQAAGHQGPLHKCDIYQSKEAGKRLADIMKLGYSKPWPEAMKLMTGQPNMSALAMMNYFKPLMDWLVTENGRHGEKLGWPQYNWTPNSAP
Procedure: In each assay, 50 μl of Guinea pig serum diluted 1-20 (v/v) in the reaction buffer was mixed with 50 μl of buffer containing sufficient ^3 H-HipHisLeu to provide approximately 100,000 cpm total, together with sufficient unlabeled HipHisLeu to produce the desired substrate concentrations, as indicated in Table 2. […] The reaction mixture was then extracted with 1 ml ethyl acetate. 500 μl of the ethyl acetate fraction was sampled and counted in a scintillation counter.

[2] = Solvent extraction of substrate and remnant product from acidified reaction mixture; format: physicochemical
Source text: While a variety of organic solvents may be suitable for the extraction step, it is preferred to employ toluene.

[3] = system: ACE; experiment: Response of 3H-benzoylPheAlaPro hydrolysis to ions; format: biochemical
Procedure: An even more sensitive assay for ACE activity has been developed using the novel compound ^3 H-benzoylPheAlaPro as substrate. This new substrate can be used to assay ACE in human urine in incubations as short as 15 minutes. The response of this substrate to ions is strikingly different from the response of HipHisLeu. […] This difficulty has been solved by the proper choice of extracting solvent. While a variety of organic solvents may be suitable for the extraction step, it is preferred to employ toluene. Approximately 88% of ^3 H-benzoylPhe enters the toluene phase while only 6% of the unhydrolyzed substrate enters the toluene phase, when toluene and the acidified reaction mixtures are in approximately equal volumes at room temperature.
The enzyme is active over a broad pH range with a maximum around pH 8.0, but is at least about 50% active in the range pH 7.0-pH 8.8, for both HipHisLeu and benzoylPheAlaPro. Although the enzyme is active in a variety of buffer systems known in the art, it is preferred for convenience, when using benzoylPheAlaPro as substrate, to conduct the assays in 0.05 M Hepes buffer, pH 8.0 containing 0.15 M sodium chloride. Detailed protocols for carrying out the assay are given in the examples. […] The preferred concentration range is 1×10^-9 M to 7×10^-5 M.

CC(C)C[C@H](NC(=O)[C@H](Cc1c[nH]cn1)NC(=O)CNC(=O)c1ccccc1)C(=O)O [HipHisLeu] (Bz-Gly-His-Leu-OH)
Km ([1]; 0.05 M Hepes, pH 8.0, 0.1 M NaCl and 0.75 M Na2 SO4, Lineweaver and Burke plot, read-out: apparent Km): 177 µM | V (reaction velocity) ([1]; HipHisLeu concentration 0.01 mM, 0.05 M Hepes): 0.30 nmol/min/mL | 1/V ([1]; HipHisLeu concentration 0.01 mM): 3.33 mL·min/nmol | V (reaction velocity) ([1]; HipHisLeu concentration 0.02 mM, 0.05 M Hepes): 0.52 nmol/min/mL | 1/V ([1]; HipHisLeu concentration 0.02 mM): 1.92 mL·min/nmol | V (reaction velocity) ([1]; HipHisLeu concentration 0.03 mM, 0.05 M Hepes): 0.74 nmol/min/mL | 1/V ([1]; HipHisLeu concentration 0.03 mM): 1.35 mL·min/nmol | V (reaction velocity) ([1]; HipHisLeu concentration 0.04 mM, 0.05 M Hepes): 1.28 nmol/min/mL | 1/V ([1]; HipHisLeu concentration 0.04 mM): 0.78 mL·min/nmol | V (reaction velocity) ([1]; HipHisLeu concentration 0.05 mM, 0.05 M Hepes): 1.14 nmol/min/mL | 1/V ([1]; HipHisLeu concentration 0.05 mM): 0.88 mL·min/nmol | V (reaction velocity) ([1]; HipHisLeu concentration 0.06 mM, 0.05 M Hepes): 1.28 nmol/min/mL | 1/V ([1]; HipHisLeu concentration 0.06 mM): 0.78 mL·min/nmol | V (reaction velocity) ([1]; HipHisLeu concentration 0.07 mM, 0.05 M Hepes): 2.14 nmol/min/mL | 1/V ([1]; HipHisLeu concentration 0.07 mM): 0.47 mL·min/nmol | V (reaction velocity) ([1]; HipHisLeu concentration 0.08 mM, 0.05 M Hepes): 1.76 nmol/min/mL | 1/V ([1]; HipHisLeu concentration 0.08 mM): 0.57 mL·min/nmol

C[C@H](NC(=O)[C@H](Cc1ccccc1)NC(=O)c1ccccc1)C(=O)N1CCC[C@H]1C(=O)O [benzoylPheAlaPro, benzoyl-Phe-Ala-Pro] (Bz-Phe-Ala-Pro-OH)
extraction into ethyl acetate ([2]; reaction terminated with dilute hydrochloric acid): almost quantitatively | fraction entering the toluene phase ([2]; toluene and acidified reaction mixture in approximately equal volumes at room temperature): 6% | effect of sodium sulfate on hydrolysis ([3]; 3H-benzoylPheAlaPro as substrate): not stimulatory | increase of apparent reaction velocity by added sodium chloride ([3]; added sodium chloride at 0.05 M, 0.05 M Hepes buffer at pH 8.0): approximately 3 fold
